# Read-outs that look alike come from different tables or passages of the source.
# Key:
# [1] = system: human breast cancer cells MDA-MB-231; assay: Scratching assay, migration of MDA-MB-231 (Example 14); format: cell-based; conditions: 20 μmol/L, 0-24 h
# Description: The inhibiting ability of 2-(4′-methyl-3′-nitrobenzoylamino)-3-indolylpropionic acid (TCI05), 2-(4′-methyl-3′-nitrobenzoylamino)-3-(4-hydroxy-phenyl) propionic acid (TCI06), 2-(4′-methyl-3′-nitrobenzenemethoxycarbonyl)-3-phenylpropionic acid (TCI07), 2-(4′-methyl-3′-nitrobenzenemethoxycarbonyl)-3-indolylpropionic acid (TCI08) for the migration of human breast cancer cells MDA-MB-231 was tested by scratching assay.
# The MDA-MB-231 cells in logarithmic growth phase were seeded in the 6-well plate at a density of 1×10^6/3 ml, and 12 h later, TCI05, TCI06, TCI07, TCI08 (formulation was the same as TCI04) was added, 150 μl per well, with the final concentration of 20 μmol/L. The negative control was 150 μL sterilized water with 2% DMSO. 48 h later, 200 ul tips were used to scratch, and after washing 4 times with PBS, 3 ml medium without fetal bovine serum was added per well. Under the inverted microscope, the distance of cell migration was recorded every 3 h, and photos were taken at 0 h and 24 h.
# [2] = system: human breast cancer cell MDA-MB-231; assay: Scratching assay, migration of MDA-MB-231 (Example 16); format: cell-based; conditions: for average (scratch assay distance): control 13.1667
# Description: The inhibiting ability of 4-hydroxy-3-nitrobenzoic acid and 4-amino-3nitrobenzoic acid for the migration of human breast cancer cell MDA-MB-231 was tested by scratching assay.
# Three lines were marked on the underside of 6-well plate, MDA-MB-231 breast cancer cells in logarithmic growth phase were digested with 0.7 mL 0.08% trypsin for 1 min, and the digestion was stopped with complete culture medium. After centrifugation at 1000 r/min for 3 min, the supernatant was discarded, then 3 mL complete culture medium was added. After pipetting to make suspension of single cell, the cells in the cell suspension was counted, and the concentration of the cells was adjusted to a density of 5×10^5 cells/well to plate the 6 wells plate, and 6 groups of drugs containing complete culture medium (DMEM+10% FBS+1% Penicillin-Streptomycin+drug) were added. After culturing in a incubator for 12 h until the cells were attached, the culture medium was removed, 20 μL tips were used to scratch vertically to the three transverse lines on the underside to obtain 6 distances for counting, and after washing with phosphate buffered saline (PBS) three times, 6 groups of drugs containing culture medium without FBS (DMEM+drug) were added respectively, and the width of the scratches were observed and recorded at 0 h, 3 h, 6 h, 9 h, 12 h and 24 h under inverted microscope, with 6 distances being recorded per well, wherein, photos were taken with inverted microscope at 0 h and 24 h for recording.
# MDA-MB-231 cells = assay: MTT assay, synergistic effect with Paclitaxel (Example 12); format: cell-based, human; conditions: Homo sapiens
# Description: Synergistic effects of (S)2-(4′-methyl-3′-nitrobenzoylamino)-3-phenylpropionic acid and Paclitaxel was tested by MTT assay.
# 1) The MDA-MB-231 cells in logarithmic growth phase were seeded in the 96-well plate at a density of 4×10^3/0.2 ml. After culturing for 12 h, 10 μl Paclitaxel solution was added, with the final concentration of 0, 0.001, 0.01, 0.1, 1, 10, 50, 100, 200 μM, then 10 μL (S)2-(4′-methyl-3′-nitrobenzoylamino)-3-phenylpropionic acid PBS solution was add to half of the wells for each group with the final concentration of 20 μM, followed by continuous culturing for 24 or 48 h.
# 2) 5 mg/mL MTT solution was prepared with sterilized PBS, filtered with 0.22 μm film, and diluted with medium to 1 mg/mL. After discarding the medium in the 96-well plate, 100 μL 1 mg/mL MTT working solution was added, followed by continuous culturing for 5 h.
# 3) MTT working solution was discarded, and 150 μL DMSO was added per well (note: to away from light). The plate was shaken on a horizontal shaker at 170 rpm for 10 min, and then the absorbance at 490 nm was detected by microplate reader.
# 4T1-luciferase cells = assay: In situ model of breast cancer in nude mouse, lung metastasis by in vivo imaging (Example 7); design: species or system nude mice; conditions: 50 mg/kg tail vein, twice a day, 21 days; P<0.01
# Description: 4) An in situ breast cancer model is constructed by in situ inoculating nude mice with 4T1 cells which are stably transfected with Luciferase, and the number of metastatic tumors on the lung is detected by in vivo imaging system. Such a model mimics the occurrence and metastasis of breast cancer.
# The ability of (S)2-(4′-methyl-3′-nitrobenzoylamino)-3-phenylpropionic acid for inhibiting tumor metastasis in vivo was tested by in situ model of breast cancer in nude mouse.
# 1) Mice grouping: Nude female mice of SPF grade, 5 weeks old, 18˜22 g, 8 mice for each group;
# 2) The mother liquid of (S)2-(4′-methyl-3′-nitrobenzoylamino)-3-phenylpropionic acid (TCI04) for the dosage form administrated by intravenous injection was diluted to 2 mg/mL, 0.1 mg/mL by adding sterilized water. The dosage for administration in mice was as follows, high dosage of 20 mg/kg; low dosage of 1 mg/kg. […]
# 3) 4T1-luciferase cells in logarithmic growth phase were digested with 0.05% typsine for 1 min, after centrifugation at 1000 rpm for 5 min, the supernatant was discarded and the cells were resuspended and counted. […]
# 5) After the completion of the administration, the mice were detected by in vivo imaging system for the condition of tumor metastasis and immediately sacrificed; the lungs alone were detected by the in vivo imaging system for the light intensity to determine the number of tumor metastasis.
compound,measurement,setting,value
2-(4′-methyl-3′-nitrobenzoylamino)-3-indolyl propionic acid [TCI05],inhibition of migration ability (coalescence speed of cell scratch vs negative control),[1],obviously inhibit
Nc1ccc(C(=O)O)cc1[N+](=O)[O-] [4-amino-3-nitrobenzoic acid],inhibition of migration ability (coalescence speed of cell scratch vs negative control),[2],obviously inhibit
same,average (scratch assay distance),[2],8.1667 10^−2 mm
O=C(O)c1ccc(O)c([N+](=O)[O-])c1 [4-hydroxy-3-nitrobenzoic acid],inhibition of migration ability (coalescence speed of cell scratch vs negative control),[2],obviously inhibit
same,average (scratch assay distance),[2],8 10^−2 mm
CC(=O)O[C@H]1C(=O)[C@@]2(C)[C@H]([C@H](OC(=O)c3ccccc3)[C@]3(O)C[C@H](OC(=O)[C@H](O)[C@@H](NC(=O)c4ccccc4)c4ccccc4)C(C)=C1C3(C)C)[C@]1(OC(C)=O)CO[C@@H]1C[C@@H]2O [Paclitaxel],IC50,"MDA-MB-231 cells; MDA-MB-231, 24 h, Paclitaxel + 20 μM (S)2-(4′-methyl-3′-nitrobenzoylamino)-3-phenylpropionic acid, read-out: IC50 after 24 h",395 nM
same,IC50,"MDA-MB-231 cells; MDA-MB-231, 24 h, Paclitaxel alone, read-out: IC50 after 24 h",3970 nM
same,IC50,"MDA-MB-231 cells; MDA-MB-231, 48 h, Paclitaxel + 20 μM (S)2-(4′-methyl-3′-nitrobenzoylamino)-3-phenylpropionic acid, read-out: IC50 after 48 h",46 nM
same,IC50,"MDA-MB-231 cells; MDA-MB-231, 48 h, Paclitaxel alone, read-out: IC50 after 48 h",512 nM
"Cc1ccc(C(=O)O)cc1[N+](=O)[O-] [TCI01, 4-methyl-3-nitrobenzoic acid, reference compound]",light intensity of the whole lung vs negative control,4T1-luciferase cells,significantly weaker than the negative control
"Cc1ccc(C(=O)NC(Cc2ccc(O)cc2)C(=O)O)cc1[N+](=O)[O-] (stereo not shown) [TCI06, 2-(4′-methyl-3′-nitrobenzoylamino)-3-(4-hydroxy-phenyl)propionic acid]",inhibition of migration ability (coalescence speed of cell scratch vs negative control),[1],obviously inhibit
"Cc1ccc(COC(=O)C(Cc2ccccc2)C(=O)O)cc1[N+](=O)[O-] (stereo not shown) [TCI07, 2-(4′-methyl-3′-nitrobenzenemethoxycarbonyl)-3-phenylpropionic acid]",inhibition of migration ability (coalescence speed of cell scratch vs negative control),[1],obviously inhibit
"Cc1ccc(COC(=O)C(Cc2c[nH]c3ccccc23)C(=O)O)cc1[N+](=O)[O-] (stereo not shown) [TCI08, 2-(4′-methyl-3′-nitrobenzenemethoxycarbonyl)-3-indolylpropionic acid]",inhibition of migration ability (coalescence speed of cell scratch vs negative control),[1],obviously inhibit
